Structures can show the parent of a compound that is named as a salt.
How the values were obtained:
RORγ = target: T1, RORγ (Homo sapiens, UniProt P51449); assay: Jurkat cell luciferase assay (human IL17 promoter reporter, RORγt overexpression); format: cell-based; details: mean pIC50; detection limit of the assay 5
T1 construct: expressed in transfected cells
T1 sequence (P51449 1-497 isoform P51449-2): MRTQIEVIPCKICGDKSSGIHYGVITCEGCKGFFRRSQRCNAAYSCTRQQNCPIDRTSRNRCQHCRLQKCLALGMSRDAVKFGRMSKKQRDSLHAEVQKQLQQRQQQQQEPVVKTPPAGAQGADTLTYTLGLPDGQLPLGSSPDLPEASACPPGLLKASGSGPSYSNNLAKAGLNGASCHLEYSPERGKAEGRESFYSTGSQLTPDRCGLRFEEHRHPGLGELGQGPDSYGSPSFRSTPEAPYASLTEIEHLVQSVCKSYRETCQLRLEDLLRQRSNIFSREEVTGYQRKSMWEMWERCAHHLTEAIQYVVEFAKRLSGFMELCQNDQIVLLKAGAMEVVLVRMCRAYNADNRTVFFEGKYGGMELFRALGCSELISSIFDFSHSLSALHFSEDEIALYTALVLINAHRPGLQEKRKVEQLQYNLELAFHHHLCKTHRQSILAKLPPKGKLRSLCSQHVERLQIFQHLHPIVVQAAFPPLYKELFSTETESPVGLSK
Excerpt: RORγ is known to bind to a CNS (conserved non-coding sequences) enhancer element in the IL17 promoter. In this assay, RORγ activity is indirectly assessed using a luciferase reporter construct which contains the human IL17 promoter having the RORγ-specific CNS enhancer element. Inhibition of RORγ activity by a compound will result in a decrease in luciferase activity of Jurkat cells transfected with the reporter construct.
. For the 1.1 Kb fragment, PCR was used to amplify human IL17 proximal promoter region from genomic DNA of 293T cells using primers as follows: forward primer, 5′-[…]-3′ (SEQ ID NO. 4) (Xhol site is underlined) and reverse primer, 5′-[…]-3′ SEQ ID NO. 5) (HindIII site is underlined). The 1.1 kb DNA bands were excised, purified, and inserted into pMD19-T Simple Vector (Takara). After DNA sequencing confirmation, the 1.1 kb DNA was digested with XhoI and HindIII and inserted into XhoI/HindIII sites of pGL4.31[luc2P/GAL4UAS/Hygro] (Promega) to generate the pIL17-lkb-luc reporter construct. For the 1.9 Kb fragment, PCR was used to amplify human IL17 promoter region from genomic DNA using primers as follows: forward primer, 5′-[…]-3′ (SEQ ID NO. 6) (KpnI site is underlined) and reverse primer, 5′-[…]-3′ (SEQ ID NO. 7)(XhoI site is underlined). The resulting 1.9 kb DNA bands were excised, gel purified, and cloned into a pMD19-T Simple Vector (Takara). […] The 1.9 kb DNA fragment was released by double digestion with KpnI and XhoI and inserted into pIL17-lkb-luc to generate the luciferase reporter plasmid “pIL17-3kb-CNS-luc.” To overexpress RORγt, the full-length cDNA of human RORγt identical to the published sequence NM13 001001523 was cloned into pcDNA3.1 at the KpnI-NotI cloning sites to generate the RORγt overexpression plasmid “CDNA3.1DhRORγ49-8”. […]
Compounds were dissolved in DMSO at three concentrations, 10 mM, 400 uM and 16 uM, and were dispensed into 384-wells assay plate at 40 nl, 12.5 nl, 5 nl respectively. The volume was adjusted with pure DMSO to a give a final uniform volume of 40 nl Jurkat cells described above were counted and centrifuged. […]

[1] = In vitro percutaneous study (Franz diffusion cells, aqueous cream); format: in vitro ADME, human
Excerpt: The in vitro percutaneous study is aimed to predict the level of percutaneous penetration obtained for a compound in a topical formulation for psoriasis. This assay coupled with the intrinsic potency of the compound are used to predict the likelihood of success of a compound to engage the target. The higher the ratio of the percutaneous penetration to the intrinsic potency, the higher the ratio of local skin concentration to the intrinsic potency and therefore the higher the chance of a compound to engage the target in a topical formulation.
The compounds were manufactured in a modified aqueous cream at pH=6.
The study was conducted with dermatomed abdominal human skin sourced from three skin donors using 2 cm2 Franz diffusion cells. The receiving fluid consisted of Bovine serum albumin (4% w/v) in 0.1% w/v sodium azide in Phospate Buffer Saline and was heated at 37° C. in order to obtain 32° C. at the skin surface. The cream formulation was applied on the donor side at a 10 mg dose, i.e. 5 mg/cm^2. The samples taken at the following time points: t=0, 3, 6, 9 and 24 h. The receiver samples were then assayed using a method based upon protein precipitation with acetonitrile followed by LC/MS/MS analysis. The percutaneous flux (in ng/cm^2/hr) was determined using the individual API (in a multiple composition) that had permeated into the receiver compartment over 24 hrs per cm^2.

Cc1c(CN2CCN(C(=O)C3CCCC3)[C@@H](C)C2)cc(Cl)cc1NC(=O)c1cccc(C#N)c1 [Example 193, (S)-N-(5-chloro-3-((4-(cyclopentanecarbonyl)-3-methylpiperazin-1-yl)methyl)-2-methylphenyl)-3-cyanobenzamide, trifluoroacetic acid salt]
IC50 (RORγ): ~2.51 nM

Cc1c(CN2CCN(C(=O)C3CCCC3)[C@@H](C)C2)cc(F)cc1NC(=O)c1cccc(C#N)c1 [Example 66, (S)-3-cyano-N-(3-((4-(cyclopentanecarbonyl)-3-methylpiperazin-1-yl)methyl)-5-fluoro-2-methylphenyl)benzamide]
IC50 (RORγ): ~5.01 nM
Flux over 24 hrs ([1]; 1.0% w/w in aqueous cream pH=6, 5 mg/cm^2, human skin from three donors): 3.43 ng/cm^2/hr
ratio of percutaneous penetration (Flux) to intrinsic potency (Th17 cell differentiation assay IC50) ([1]; ranking among the three compounds tested): highest ratio
